Measured values from patent US20230081426A1, “COMPOUNDS AND METHODS FOR KRAS MODULATION AND INDICATIONS THEREFOR” (Plexxikon Inc., priority 2020, published 2023).

Tests used:
[1] = molecular target: T1, G12D-mutant human KRAS (amino acid residues 1-188) (Homo sapiens, UniProt P01116, G12D); assay: KRAS Binding Disruption Assay (AlphaScreen; biotinylated KRpep-2d analogue or RAF1-RBD), G12D; settings: KRAS G12D; geometric mean; read-out: KRAS GMean IC50 (uM) MUTATION: G12D
T1 construct: G12D or G12C-mutant human KRAS (amino acid residues 1-188) with FLAG tag; made in house; host or cells: E. coli
Procedure, shortened: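 Mutant KRAS (5-20 nM) incubated 1 h at 25° C with test compound and 5-20 nM biotinylated KRpep-2d analogue or RAF1-RBD in 20 mM HEPES pH 7.5, 100 mM NaCl, 5 mM MgCl2, 0.01% Tween-20, 0.01% BSA.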

[2] = molecular target: T2, G12V-mutant human KRAS (amino acid residues 1-188) (Homo sapiens, UniProt P01116, G12V); assay: KRAS Binding Competition Assay (AlphaScreen; biotinylated KRpep-2d analogue), G12V; settings: geometric mean, read-out: KRAS GMean IC50 (uM) MUTATION: G12V
T2 construct: G12V-mutant human KRAS (amino acid residues 1-188) with FLAG tag was purified from E. coli; made in house; host or cells: E. coli

SMILES	IC50 [1]	IC50 [2]
CN1CCC[C@H]1COc1nc(N2[C@@H]3CC[C@H]2CN(C(=O)CCC2CCCNC2)C3)c2ccc(-c3cc(O)cc4ccccc34)cc2n1 (stereo partly drawn) [P-0192, 1-((1R,5S)-8-(7-(3-hydroxynaphthalen-1-yl)-2-(((S)-1-methylpyrrolidin-2-yl)methoxy)quinazolin-4-yl)-3,8-diazabicyclo[3.2.1]octan-3-yl)-3-(piperidin-3-yl)propan-1-one]	10 to 100 µM	10 to 100 µM
CN1CCC[C@H]1COc1nc(N2[C@@H]3CC[C@H]2CN(C(=O)CCC2CCNCC2)C3)c2ccc(-c3cc(O)cc4ccccc34)cc2n1 [P-0193, 1-((1R,5S)-8-(7-(3-hydroxynaphthalen-1-yl)-2-(((S)-1-methylpyrrolidin-2-yl)methoxy)quinazolin-4-yl)-3,8-diazabicyclo[3.2.1]octan-3-yl)-3-(piperidin-4-yl)propan-1-one]	10 to 100 µM	10 to 100 µM
CN1CCC[C@H]1COc1nc(N2[C@@H]3CC[C@H]2CN(C(=O)CCC2CNCCN2)C3)c2ccc(-c3cc(O)cc4ccccc34)cc2n1 (stereo partly drawn) [P-0194, 1-((1R,5S)-8-(7-(3-hydroxynaphthalen-1-yl)-2-(((S)-1-methylpyrrolidin-2-yl)methoxy)quinazolin-4-yl)-3,8-diazabicyclo[3.2.1]octan-3-yl)-3-(piperazin-2-yl)propan-1-one]	10 to 100 µM	10 to 100 µM
CN1CCC[C@H]1COc1nc(N2[C@@H]3CC[C@H]2CN(C(=O)CCCn2ccnc2)C3)c2ccc(-c3cc(O)cc4ccccc34)cc2n1 [P-0195, 1-((1R,5S)-8-(7-(3-hydroxynaphthalen-1-yl)-2-(((S)-1-methylpyrrolidin-2-yl)methoxy)quinazolin-4-yl)-3,8-diazabicyclo[3.2.1]octan-3-yl)-4-(1H-imidazol-1-yl)butan-1-one]	10 to 100 µM	10 to 100 µM
CN1CCC[C@H]1COc1nc(N2[C@@H]3CC[C@H]2CN(C(=O)CC2CCCC2O)C3)c2ccc(-c3cc(O)cc4ccccc34)cc2n1 (stereo partly drawn) [P-0196, 2-(2-hydroxycyclopentyl)-1-((1R,5S)-8-(7-(3-hydroxynaphthalen-1-yl)-2-(((S)-1-methylpyrrolidin-2-yl)methoxy)quinazolin-4-yl)-3,8-diazabicyclo[3.2.1]octan-3-yl)ethan-1-one]	10 to 100 µM	10 to 100 µM
N#Cc1ccc(CCc2nc(N3[C@@H]4CC[C@H]3CNC4)c3ccc(-c4cc(O)cc5ccccc45)cc3n2)cc1 [P-0197, 4-(2-(4-((1R,5S)-3,8-diazabicyclo[3.2.1]octan-8-yl)-7-(3-hydroxynaphthalen-1-yl)quinazolin-2-yl)ethyl)benzonitrile]	0.0001 to 10 µM	10 to 100 µM
O=C(O)CCc1nc(N2[C@@H]3CC[C@H]2CNC3)c2ccc(-c3cc(O)cc4ccccc34)cc2n1 [P-0198, 3-(4-((1R,5S)-3,8-diazabicyclo[3.2.1]octan-8-yl)-7-(3-hydroxynaphthalen-1-yl)quinazolin-2-yl)propanoic acid]	0.0001 to 10 µM	10 to 100 µM
CN(C)C(=O)CCc1nc(N2[C@@H]3CC[C@H]2CNC3)c2ccc(-c3cc(O)cc4ccccc34)cc2n1 [P-0199, 3-(4-((1R,5S)-3,8-diazabicyclo[3.2.1]octan-8-yl)-7-(3-hydroxynaphthalen-1-yl)quinazolin-2-yl)-N,N-dimethylpropanamide]	10 to 100 µM	10 to 100 µM
Oc1cc(-c2ccc3c(N4[C@@H]5CC[C@H]4CNC5)nc(CC4CCNCC4)nc3c2)c2ccccc2c1 [P-0200, 4-(4-((1R,5S)-3,8-diazabicyclo[3.2.1]octan-8-yl)-2-(piperidin-4-ylmethyl)quinazolin-7-yl)naphthalen-2-ol]	0.0001 to 10 µM	10 to 100 µM
CN1CCC(Cc2nc(N3[C@@H]4CC[C@H]3CNC4)c3ccc(-c4cc(O)cc5ccccc45)cc3n2)CC1 [P-0201, 4-(4-((1R,5S)-3,8-diazabicyclo[3.2.1]octan-8-yl)-2-((1-methylpiperidin-4-yl)methyl)quinazolin-7-yl)naphthalen-2-ol]	0.0001 to 10 µM	10 to 100 µM
CN1CCC[C@H]1COc1nc(N2[C@@H]3CC[C@H]2CN(C(=O)[C@@H]2C[C@@H](O)CN2)C3)c2ccc(-c3cc(O)cc4ccccc34)cc2n1 [P-0202, ((1R,5S)-8-(7-(3-hydroxynaphthalen-1-yl)-2-(((S)-1-methylpyrrolidin-2-yl)methoxy)quinazolin-4-yl)-3,8-diazabicyclo[3.2.1]octan-3-yl)((2S,4R)-4-hydroxypyrrolidin-2-yl)methanone]	0.0001 to 10 µM	10 to 100 µM
CN1CCN(CCCS(=O)(=O)N2[C@@H]3CC[C@H]2CN(c2nc(OCC45CCCN4CCC5)nc4c(F)c(-c5cc(O)cc6ccccc56)ccc24)C3)CC1 [P-0203, 4-(8-fluoro-4-((1R,5S)-8-((3-(4-methylpiperazin-1-yl)propyl)sulfonyl)-3,8-diazabicyclo[3.2.1]octan-3-yl)-2-((tetrahydro-1H-pyrrolizin-7a(5H)-yl)methoxy)quinazolin-7-yl)naphthalen-2-ol]	0.0001 to 10 µM	0.0001 to 10 µM
CN1CCC[C@H]1COc1nc(N2[C@@H]3CC[C@H]2CN(C(=O)[C@@H]2C[C@@H](O)CN2)C3)c2ccc(-c3cc(O)cc4ccccc34)cc2n1 [P-0204, ((1R,5S)-8-(7-(3-hydroxynaphthalen-1-yl)-2-(((S)-1-methylpyrrolidin-2-yl)methoxy)quinazolin-4-yl)-3,8-diazabicyclo[3.2.1]octan-3-yl)((2S,4R)-4-hydroxypyrrolidin-2-yl)methanone]	10 to 100 µM	10 to 100 µM
CN1CCC[C@H]1COc1nc(N2[C@@H]3CC[C@H]2CN(C(=O)[C@H]2CCCN2)C3)c2ccc(-c3cc(O)cc4ccccc34)cc2n1 [P-0205, 4-((1R,5S)-3-(D-prolyl)-3,8-diazabicyclo[3.2.1]octan-8-yl)-7-(3-hydroxynaphthalen-1-yl)-2-(((S)-1-methylpyrrolidin-2-yl)methoxy)quinazoline]	10 to 100 µM	100 to 1000 µM
CNCC(=O)N1C[C@H]2CC[C@@H](C1)N2c1nc(OC[C@@H]2CCCN2C)nc2cc(-c3cc(O)cc4ccccc34)ccc12 [P-0206, 1-((1R,5S)-8-(7-(3-hydroxynaphthalen-1-yl)-2-(((S)-1-methylpyrrolidin-2-yl)methoxy)quinazolin-4-yl)-3,8-diazabicyclo[3.2.1]octan-3-yl)-2-(methylamino)ethan-1-one]	10 to 100 µM	10 to 100 µM
CN1CCC[C@H]1COc1nc(N2[C@@H]3CC[C@H]2CN(C(=O)Cn2ccnc2)C3)c2ccc(-c3cc(O)cc4ccccc34)cc2n1 [P-0207, 1-((1R,5S)-8-(7-(3-hydroxynaphthalen-1-yl)-2-(((S)-1-methylpyrrolidin-2-yl)methoxy)quinazolin-4-yl)-3,8-diazabicyclo[3.2.1]octan-3-yl)-2-(1H-imidazol-1-yl)ethan-1-one]	10 to 100 µM	10 to 100 µM
CN1CCC[C@H]1COc1nc(N2[C@@H]3CC[C@H]2CN(C(=O)NC2CN4CCC2CC4)C3)c2ccc(-c3cc(O)cc4ccccc34)cc2n1 (stereo partly drawn) [P-0208, (1R,5S)-8-(7-(3-hydroxynaphthalen-1-yl)-2-(((S)-1-methylpyrrolidin-2-yl)methoxy)quinazolin-4-yl)-N-(quinuclidin-3-yl)-3,8-diazabicyclo[3.2.1]octane-3-carboxamide]	0.0001 to 10 µM	10 to 100 µM
CN1CCN(CCNC(=O)N2C[C@H]3CC[C@@H](C2)N3c2nc(OC[C@@H]3CCCN3C)nc3cc(-c4cc(O)cc5ccccc45)ccc23)CC1 [P-0209, (1R,5S)-8-(7-(3-hydroxynaphthalen-1-yl)-2-(((S)-1-methylpyrrolidin-2-yl)methoxy)quinazolin-4-yl)-N-(2-(4-methylpiperazin-1-yl)ethyl)-3,8-diazabicyclo[3.2.1]octane-3-carboxamide]	10 to 100 µM	10 to 100 µM
CN1CCC[C@H]1COc1nc(N2[C@@H]3CC[C@H]2CN(C(=O)Nc2cccnc2)C3)c2ccc(-c3cc(O)cc4ccccc34)cc2n1 [P-0210, (1R,5S)-8-(7-(3-hydroxynaphthalen-1-yl)-2-(((S)-1-methylpyrrolidin-2-yl)methoxy)quinazolin-4-yl)-N-(pyridin-3-yl)-3,8-diazabicyclo[3.2.1]octane-3-carboxamide]	10 to 100 µM	10 to 100 µM
CN1CCC[C@H]1COc1nc(N2[C@@H]3CC[C@H]2CN(C(=O)NCC(N)=O)C3)c2ccc(-c3cc(O)cc4ccccc34)cc2n1 [P-0211, (1R,5S)-N-(2-amino-2-oxoethyl)-8-(7-(3-hydroxynaphthalen-1-yl)-2-(((S)-1-methylpyrrolidin-2-yl)methoxy)quinazolin-4-yl)-3,8-diazabicyclo[3.2.1]octane-3-carboxamide]	10 to 100 µM	10 to 100 µM
CN1CCC[C@H]1COc1nc(N2[C@@H]3CC[C@H]2CN(C(=O)NC2COCC2(C)C)C3)c2ccc(-c3cc(O)cc4ccccc34)cc2n1 (stereo partly drawn) [P-0212, (1R,5S)-N-(4,4-dimethyltetrahydrofuran-3-yl)-8-(7-(3-hydroxynaphthalen-1-yl)-2-(((S)-1-methylpyrrolidin-2-yl)methoxy)quinazolin-4-yl)-3,8-diazabicyclo[3.2.1]octane-3-carboxamide]	10 to 100 µM	10 to 100 µM
CN1CCC[C@H]1COc1nc(N2[C@@H]3CC[C@H]2CN(C(=O)NO)C3)c2ccc(-c3cc(O)cc4ccccc34)cc2n1 [P-0213, (1R,5S)-N-hydroxy-8-(7-(3-hydroxynaphthalen-1-yl)-2-(((S)-1-methylpyrrolidin-2-yl)methoxy)quinazolin-4-yl)-3,8-diazabicyclo[3.2.1]octane-3-carboxamide]	10 to 100 µM	10 to 100 µM
